The values below are quoted from earlier work in patent publication US20110302824A1, “PROCESS FOR LIQUEFYING A CELLULOSIC MATERIAL” (SHELL OIL COMPANY, priority 2010, published 2011).

For the data set the following is noted: polarity of the (co-)solvent of the liquefaction medium; octanol-water.

SMILES strings stand for the structures.

In the case of `CCCCCCCCCCCC` [w/C12, dodecane], the “Solvent Log P” value was 6.1.

In the case of `CC1CCC(=O)O1` (centres unmarked) [w/gVL, gamma-valerolactone], the “Solvent Log P” value is reported as −0.6.
